In data set [1] the test system is patients (symptoms of the disease). Kind of data set: comparison testing of symptom changes in patients treated with potassium citrate or potassium tartarate. The data set is classed as in vivo, human. The conditions noted are these: FIGS. 6 and 7; 4 patients per compound; base condition, 10th and 20th day. An excerpt: The substitution of one or more components of the compound causes an inefficacy of the relevant different compound.
The graph of FIG. 6 is relevant to the changes in symptoms among 4 patients treated using potassium citrate, while the graph of FIG. 7 is relevant to the changes in symptoms among 4 patients treated using potassium tartarate. Similarly to the graph of FIG. 5, on abscissa each graph presents the different symptoms; from left to right-thoracic pain, abdominal pain, osteomuscular pain-dyspnea, cough, nausea, emesis, ascites, temperature, asthenia. The columns are composed by three secondary columns which refer to the different time of recording of the data, with 10 days interval; from left to right base condition (at the beginning of the treatment), at 10th day and at 20th day. Also in these cases the rate utilized as ordinate in the graph is relevant to the intensity (amount) of the symptoms.

A short description of data set [2]: stability of the salt (oxidizability). The data set is classed as physicochemical. Particulars: due to its easy oxidizability.
Data set [3] is described as follows: toxicity at the stated dosages. The conditions noted are these: given the stated dosages; long-term use.
A short description of data set [4]: water solubility of the salt. The data set is classed as physicochemical.
Data set [5] deals with patients suffering from different types of neoplasia in advanced phase. Briefly: testing of potassium ribose ascorbate, given three times a day, in 30 terminally-ill neoplasia patients for more than ten years. The data set is classed as in vivo, human. As to the method:
In FIGS. 2-5 and 8-11 are shown the results of a testing carried out for more than ten years. The testing was carried out on a sample of 30 patients suffering from different types of neoplasia in advanced phase (terminally-ill patients).
The patients were given potassium ribose ascorbate three times a day.
The integrator of the present invention not only allows a good survival percentage but also improves the symptoms of the diseases. In FIG. 5 is a graph showing the changes in ten symptoms among the patients above mentioned. On abscissa the graph presents the different symptoms; from left to right thoracic pain, abdominal pain, osteomuscular pain, dyspnea, cough, nausea, emesis, ascites, temperature, asthenia. Every column is composed by five secondary columns which refer to the different time of recording of the data, with 15 days interval, from left to right: base condition (at the beginning of the treatment), at 15th day, at 30th day, at 45th and at 60th day The rate utilized as ordinate in the graph is relevant to the intensity (amount) of the symptoms. This rate is a normalized value among the different rates utilized for measuring the ten symptoms (i.e. degrees for the temperature, an objective value for pain, cough, etc). A higher rate means a higher means intensity of the symptom.
In particular, FIG.8 is relevant to the mean changes in the hemoglobin rate, in the graph, the abscissa is divided in steps corresponding to 15 days intervals, while the ordinate is expressed in g/dl. FIG. 9 is relevant to the mean changes in the white cells number; in the graph, the abscissa is divided in steps corresponding to 15 days intervals, while the ordinate is expressed in number of cells. FIG. 10 is relevant to the mean changes in the red cells number; in the graph, the abscissa is divided in steps corresponding to 15 days intervals, while the ordinate is expressed in thousands of cells. FIG. 11 is relevant to the mean changes in the erythrosedimentation rate at first hour; in the graph, the abscissa is divided in steps corresponding to 15 days intervals, while the ordinate is expressed in erythrosedimentation rate.

Experimental findings from patent publication US6416791B1, “Alimentary integrator” (priority 1999, dated 2002) are described below.

As for `O=C([O-])CC(O)(CC(=O)[O-])C(=O)[O-].[K+].[K+].[K+]` [potassium citrate], the “change in intensity of ten symptoms” value in data set [1] was “substantially increasing symptoms rate”.

As to `O=C([O-])C(O)C(O)C(=O)[O-].[K+].[K+]` (stereo not shown) [potassium tartarate], in data set [1], the “change in intensity of ten symptoms” value was “substantially increasing symptoms rate”.

For potassium ribosate, the stability entry in data set [2] was “somewhat unstable”. In addition, the toxicity result in data set [3] is listed as “does not produce any toxicity”. The solubility in water result in data set [4] is “easily water-soluble”.

potassium ribose ascorbate: the stability entry in data set [2] is reported as “somewhat unstable”. The “survival percentage after five years” value in data set [5] (FIG. 2, terminally-ill patients, by location of neoplasia: brain, breast, lung, ovary, prostate, skin) is “very high”. The “survival percentage after ten years” value in data set [5] (FIG. 3, terminally-ill patients, by location of neoplasia: brain, breast, lung, ovary, prostate, skin) is “very high”. Moreover, the “change in intensity of ten symptoms (thoracic, abdominal, osteomuscular pain, dyspnea, cough, nausea, emesis, ascites, temperature, asthenia)” value in data set [5] (FIG. 5, normalized rate, base condition, 15th, 30th, 45th and 60th day) is recorded as “all symptoms decreased”. The “mean changes in the hemoglobin rate” value in data set [5] (FIG. 8, 15 days intervals, ordinate in g/dl) is on record as “increasing rates”. In addition, the “mean changes in the white cells number” value in data set [5] (FIG. 9, 15 days intervals, ordinate in number of cells) is given as “increasing rates”. Also, the “mean changes in the red cells number” value in data set [5] (FIG. 10, 15 days intervals, ordinate in thousands of cells) is given as “increasing rates”. Also, in data set [5] (FIG. 11, 15 days intervals), the “mean changes in the erythrosedimentation rate at first hour” value is reported as “decreasing rate”.
